Laboratory results reported in the RepoRT retention time repository (doi:10.1016/j.talanta.2015.03.003).

experiment: RP, Merck Supelco Ascentis Express C18, 150 × 2.1 mm, 2.7 µm, 55 °C, 0.26 mL/min, estimated dead time 1.3 min; A: 60% water + 40% acetonitrile + 0.1% formic acid + 10 mM ammonium formate; B: 10% acetonitrile + 90% isopropanol + 0.1% formic acid + 10 mM ammonium formate; gradient (min/%B) 0/32 1.5/32 4/45 5/52 8/58 11/66 14/70 18/75 21/97 25/97 25.1/32 30/32; details: stereoisomer not certain

SMILES | LC retention time
CCCCCC=CCC=CCCCCCCCC(=O)OCC(O)CO (racemic) [1linoleoyl-rac-GL] | 7.6 min
CCCCCCC=CCCCCCCCC(=O)OCC(O)CO (racemic) [1monopalmitoleoyl-rac-GL] | 7 min
CCCCCC=CCC=CCCCCCCCC(=O)OCC(COP(=O)(O)OCC[N+](C)(C)C)OC(=O)CCCCCCCC=CCC=CCCCCC (centres undefined) [1,2dilinoleoyl_PC] | 14.7 min
CCCCCCCCC=CCCCCCCCC(=O)OCC(COP(=O)(O)OCC(O)CO)OC(=O)CCCCCCCC=CCCCCCCCC (centres undefined) [1,2dioleoyl_GLP_Na] | 15.7 min
CCCCCCCCC=CCCCCCCCC(=O)OCC(COP(=O)([O-])OCC[N+](C)(C)C)OC(=O)CCCCCCCC=CCCCCCCCC (centres undefined) [1,2dioleoyl_PC] | 17 min
CCCCCCCCC=CCCCCCCCC(=O)OCC(COP(=O)(O)OCCN)OC(=O)CCCCCCCC=CCCCCCCCC (centres undefined) [1,2dioleoyl_PE] | 17.4 min
CCCCCCCCCCCCCCCC(=O)OCC(O)COP(=O)([O-])OCC[N+](C)(C)C (centres undefined) [1-palmitoyl-sn-glycero-3PC] | 5.9 min
CCCCCCCCC=CCCCCCCCC(=O)OCC(O)CO (stereo not drawn) [1oleoyl_rac_GL] | 8.8 min
CC(C)CCCC(C)C1CCC2C3CCC4CCCCC4(C)C3CCC12C (centres undefined) [5alfa-colestane] | 9.2 min
CCC(CCC(C)C1CCC2C3CC=C4CC(O)CCC4(C)C3CCC12C)C(C)C (centres undefined) [BSitosterol] | 16.6 min
CCCCCCCCCCCCCCCCCCCCCC(=O)O [BehenicAcid] | 15.8 min
CCCCCCCCCCCCCCCC(=O)OC(CC(=O)[O-])C[N+](C)(C)C (centres undefined) [C16-CAR] | 5.4 min
CC(CCC(=O)O)C1CCC2C3C(O)CC4CC(O)CCC4(C)C3CC(O)C12C (centres undefined) [CA] | 2.2 min
CCCCCCCCCCCCCC=CC(O)C(CO)NC(=O)CCCCCCCCCCCCCCCCC (centres undefined) [CER_893] | 19.4 min
CC(C)CCCC(C)C1CCC2C3CC=C4CC(O)CCC4(C)C3CCC12C (centres undefined) [CHOLESTEROL] | 15.3 min
CC(C)CCCC(C)C1CCC2C3CC4OC45CC(O)CCC5(C)C3CCC12C (centres undefined) [Chol_Epoxide] | 12.8 min

SMILES | LC retention time
CC(C)CCCC(C)C1CCC2C3CCC4CC(O)CCC4(C)C3CCC12C (centres undefined) [Cholestanol] | 11.3 min
CCCCCCCCCCCCCC=CC(O)C(N)CO [D-sphingosine] | 4.3 min
CC(CCC(=O)O)C1CCC2C3CCC4CC(O)CCC4(C)C3CC(O)C12C (centres undefined) [DCA] | 3.5 min
CCC=CCC=CCC=CCC=CCC=CCC=CCCC(=O)O [DocosahexaenoicAcid] | 8.4 min
CC(CCC(=O)NCC(=O)O)C1CCC2C3C(O)CC4CC(O)CCC4(C)C3CC(O)C12C (centres undefined) [G-CA] | 1.6 min
CC(CCC(=O)NCC(=O)O)C1CCC2C3CCC4CC(O)CCC4(C)C3CC(O)C12C (centres undefined) [G-DCA] | 2.1 min
CC(CCC(=O)NCC(=O)O)C1CCC2C3CCC4CC(O)CCC4(C)C3CCC12C (centres undefined) [G-LCA] | 2.9 min
CCCCCC=CCC=CCCCCCCCC(=O)OCC(COC(=O)CCCCCCCC=CCC=CCCCCC)OC(=O)CCCCCCCC=CCC=CCCCCC (centres undefined) [Glyceryltrilinoleate] | 23.6 min
CC(CCC(=O)O)C1CCC2C3CC(O)C4CC(O)CCC4(C)C3CCC12C (centres undefined) [HDCA] | 2.1 min
CC(CCC(=O)O)C1CCC2C3CCC4CC(O)CCC4(C)C3CCC12C (centres undefined) [LCA] | 5.6 min
CC(CCC(=O)O)C1CCC2C3C(O)C(O)C4CC(O)CCC4(C)C3CCC12C (centres undefined) [MCA] | 1.9 min
CCCCC=CCCCCCCCC(=O)O [MiristoleicAcid] | 6.6 min
CCCCCCCCCCCCCC(=O)O [MirysticAcid] | 8 min
CCCCCCCCC=CCCCCCCCC(=O)OC(CC(=O)[O-])C[N+](C)(C)C (centres undefined) [Oleoyl-CAR] | 5.8 min
NC(COP(=O)(O)O)C(=O)O (centres undefined) [PS] | 14.9 min

The remaining lines, values ahead:

LC retention time | SMILES
2.7 min | CC(=O)C1CCC2C3CCC4=CC(=O)CCC4(C)C3CCC12C (centres undefined) [Progesterone]
12 min | CCCCCCCCCCCCCCCCCC(=O)O [StearicAcid]
1.6 min | CC(CCC(=O)NCCS(=O)(=O)O)C1CCC2C3CCC4CC(O)CCC4(C)C3CC(O)C12C (centres undefined) [T-DCA]
2 min | NC(CF)(C(=O)O)C(O)CCc1ccccc1 (centres undefined) [T-LCA]
13.9 min | CCCCCCCCCCCCCCCCCCCC(=O)O [arachidic acid]
12.6 min | CCC(CCC(C)C1CCC2C3CC=C4CC(OC5OC(CO)C(O)C(O)C5O)CCC4(C)C3CCC12C)C(C)C (centres undefined) [betaSitosterolglucoside]
15.1 min | CC(C)C(C)C=CC(C)C1CCC2C3CC=C4CC(O)CCC4(C)C3CCC12C (centres undefined) [brassicasterol]
16 min | CC(C)C(C)CCC(C)C1CCC2C3CC=C4CC(O)CCC4(C)C3CCC12C (centres undefined) [campesterol]
12.2 min | CCCCCCCC/C=C\CCCCCCCCCC(=O)O [cis-11-eicosenoic acid]
10.3 min | CCCCCCC=CCCCCCCCCCC(=O)O [cis-vaccenic_acid]
13.8 min | CC(C)=CCCC(C)C1CCC2C3CC=C4CC(O)CCC4(C)C3CCC12C (centres undefined) [desmosterol]
14.2 min | CC(C)C(C)C=CC(C)C1CCC2C3=CC=C4CC(O)CCC4(C)C3CCC21C (centres undefined) [ergosterol]
14 min | CCCCCCCCC=CCCCCCCCCCCCC(=O)O [erucic acid]
24.2 min | CCCCCCCCC=CCCCCCCCC(=O)OCC(COC(=O)CCCCCCCC=CCCCCCCCC)OC(=O)CCCCCCCC=CCCCCCCCC (centres undefined) [glyceryltrioleate]
24.2 min | CCCCCCCCCCCCCCCC(=O)OCC(COC(=O)CCCCCCCCCCCCCCC)OC(=O)CCCCCCCCCCCCCCC [glyceryltripalmitate]
24.2 min | CCCCCCC=CCCCCCCCC(=O)OCC(COC(=O)CCCCCCCC=CCCCCCC)OC(=O)CCCCCCCC=CCCCCCC (centres undefined) [glyceryltripalmitoleate]
24.9 min | CCCCCCCCCCCCCCCCCC(=O)OCC(COC(=O)CCCCCCCCCCCCCCCCC)OC(=O)CCCCCCCCCCCCCCCCC [glyceryltristearate]
15 min | CC(C)=CCCC(C)C1CCC2(C)C3=C(CCC12C)C1(C)CCC(O)C(C)(C)C1CC3 (centres undefined) [lanosterol]
17.8 min | CCCCCCCCCCCCCCCCCCCCCCCC(=O)O [lignoceric acid]
8.9 min | CCCCC/C=C\C/C=C\CCCCCCCC(=O)O [linoleic acid]
7.8 min | CCC=CCC=CCC=CCCCCCCCC(=O)O [linolenic acid]
15.2 min | C=C(C)C1CCC2(C)CCC3(C)C(CCC4C5(C)CCC(O)C(C)(C)C5CCC43C)C12 (centres undefined) [lupeol]
11 min | CCCCCCCCCCCCCCCCC(=O)O [margaric acid]
10.3 min | CCCCCCCCC=CCCCCCCCC(=O)O [oleic_acid]
9.9 min | CCCCCCCCCCCCCCCC(=O)O [palmitic_acid]
8.4 min | CCCCCCC=CCCCCCCCC(=O)O [palmitoleic_acid]
16 min | CCC(C=CC(C)C1CCC2C3CC=C4CC(O)CCC4(C)C3CCC12C)C(C)C (centres undefined) [stigmasterol]
7.6 min | CC1CCC2(CO)CCC3(C)C(=CCC4C5(C)CCC(O)C(C)(C)C5CCC43C)C2C1C (centres undefined) [uvaol]
